Data: ChEMBL document CHEMBL1201862, “PubChem BioAssay data set” (2004)
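Where inhibition never reached the appropriate level, the endpoint shown equals the highest concentration tested. Otherwise, values were interpolated linearly from a five-concentration, 48-hour dose response in 96-well plates. GI50 = concentration required for 50% inhibition of growth.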 The source made the active and inactive calls. Cut-off read from the data, not from the text of the source: active = GI50 up to about 1.1 µM and inactive = higher.

What was measured:
Assay in all cases: growth of human tumour cells (NCI), 48 h
[1] = tested on: SNB-19
[2] = tested on: EKVX
[3] = tested on: M14
[4] = tested on: SK-MEL-2
[5] = tested on: SN12C
[6] = tested on: RXF 393
[7] = tested on: SF-295
[8] = tested on: HOP-62
[9] = tested on: HT-29
[10] = tested on: A549
[11] = tested on: UACC-257
[12] = tested on: U-251
[13] = tested on: 786-0
[14] = tested on: OVCAR-8
[15] = tested on: SK-MEL-5
[16] = tested on: OVCAR-5
[17] = tested on: DU-145
[18] = tested on: MDA-N
[19] = tested on: NCI/ADR-RES

Measured: GI50

CC1=CC(=O)N2C(OC[C@@H]2c2ccccc2)O1 (stereo partly specified)
inactive: [1] > 100 µM | [2] > 100 µM | [3] > 100 µM | [4] > 100 µM | [5] > 100 µM | [6] > 100 µM | [7] > 100 µM | [8] > 100 µM | [9] > 100 µM | [10] > 100 µM | [11] > 100 µM | [12] > 100 µM | [13] > 100 µM | [14] > 100 µM | [15] > 100 µM

N#CCC(=O)N1CCCOCCC1
inactive: [16] > 100 µM | [1] > 100 µM | [2] > 100 µM | [3] > 100 µM | [4] > 100 µM | [5] > 100 µM | [6] > 100 µM | [7] > 100 µM | [8] > 100 µM | [9] 34.1 µM | [10] > 100 µM | [11] > 100 µM | [12] > 100 µM | [13] > 100 µM | [15] > 100 µM

COc1ccc(Nc2nnc(CCCCCCCCc3nnc(Nc4ccc(OC)cc4)o3)o2)cc1
inactive: [16] > 100 µM | [1] > 100 µM | [2] > 100 µM | [17] > 100 µM | [3] > 100 µM | [4] > 100 µM | [5] > 100 µM | [6] > 100 µM | [7] > 100 µM | [8] > 100 µM | [18] > 100 µM | [9] > 100 µM | [10] > 100 µM | [11] > 100 µM | [12] > 100 µM | [13] > 100 µM | [14] > 100 µM | [15] > 100 µM | [19] > 100 µM

COc1ccc(Nc2nc3ccc(C(F)(F)F)cc3nc2C(=O)O)cc1
inactive: [16] 28.2 µM | [2] 31.5 µM | [17] 49.1 µM | [3] 36.4 µM | [4] 43.9 µM | [5] 30.3 µM | [6] 22.9 µM | [7] 23.6 µM | [8] 35.5 µM | [18] 42.2 µM | [9] 36.9 µM | [10] 29.4 µM | [11] 32.6 µM | [12] 32.1 µM | [13] 44.8 µM | [14] 30.8 µM | [15] 26.5 µM | [19] 29.9 µM

CN(C)c1ccccc1CC(c1c[nH]c2ccccc12)c1c[nH]c2ccccc12
inactive: [16] 16.9 µM | [1] 14.4 µM | [2] 5.38 µM | [3] 11.4 µM | [4] 14.8 µM | [5] 3.1 µM | [6] 7.91 µM | [7] 11.9 µM | [8] 6.62 µM | [9] 5.38 µM | [10] 10.2 µM | [11] 16.2 µM | [12] 12.1 µM | [13] 12.8 µM | [14] 11.2 µM | [15] 15.3 µM

CC1C2C=C(O)C(=O)C(C2=O)C1c1ccccc1 (stereo unspecified)
inactive: [16] > 100 µM | [1] > 100 µM | [2] > 100 µM | [3] > 100 µM | [4] > 100 µM | [6] > 100 µM | [7] > 100 µM | [8] > 100 µM | [9] > 100 µM | [10] > 100 µM | [11] > 100 µM | [12] > 100 µM | [13] > 100 µM | [14] > 100 µM | [15] > 100 µM

CC(C)(C)C(=C[S+]([O-])/N=C/c1ccccc1)C(C)(C)C (stereo unspecified)
inactive: [16] 48.6 µM | [1] 44.7 µM | [2] 52.1 µM | [3] 40.2 µM | [4] 15.9 µM | [5] 21.1 µM | [6] 26.7 µM | [8] 37.8 µM | [9] 38.4 µM | [10] 33.4 µM | [11] 52 µM | [12] 25.1 µM | [13] > 100 µM | [14] 59.4 µM | [15] 24.3 µM

CC1=C(C(=O)Nc2ccccc2)C(c2cccc3ccccc23)C(C(=O)Nc2ccccc2)=C(C)N1
inactive: [16] 23 µM | [1] 16.4 µM | [2] 11.8 µM | [3] 17.7 µM | [4] 17 µM | [5] 18 µM | [6] 14.4 µM | [7] 17.5 µM | [8] 18.7 µM | [9] 18.8 µM | [10] 28 µM | [11] 18.2 µM | [12] 16.5 µM | [13] 22.4 µM | [14] 16.7 µM | [15] 19.3 µM

O=S1(=O)OCCOS(=O)(=O)C1(Br)Cc1ccccc1
inactive: [16] > 100 µM | [1] > 100 µM | [2] > 100 µM | [3] > 100 µM | [4] > 100 µM | [5] > 100 µM | [6] > 100 µM | [7] > 100 µM | [8] > 100 µM | [9] > 100 µM | [10] > 100 µM | [11] > 100 µM | [12] > 100 µM | [13] > 100 µM | [14] > 100 µM | [15] > 100 µM

COc1cc(C2C(Cl)C(=O)N2NC(=O)c2ccc(NC(C)=O)cc2)ccc1O (stereo unspecified)
inactive: [16] > 100 µM | [1] > 100 µM | [2] > 100 µM | [3] > 100 µM | [4] > 100 µM | [5] > 100 µM | [6] > 100 µM | [7] > 100 µM | [8] > 100 µM | [9] > 100 µM | [10] > 100 µM | [11] > 100 µM | [12] > 100 µM | [13] > 100 µM | [14] > 100 µM | [15] > 100 µM

CCOC(=O)c1c(-c2[nH]c(C(=O)OCc3ccccc3)c(C)c2C(=O)OCC)[nH]c(C(=O)OCc2ccccc2)c1C
inactive: [16] > 100 µM | [2] > 100 µM | [3] > 100 µM | [4] > 100 µM | [5] > 100 µM | [6] 19.9 µM | [7] > 100 µM | [8] > 100 µM | [9] > 100 µM | [10] > 100 µM | [12] 36 µM | [13] 92 µM | [14] > 100 µM | [15] > 100 µM

CN1CCCCC(C(O)(c2ccccc2)c2ccccc2)C1=O (stereo unspecified)
inactive: [16] > 100 µM | [1] > 100 µM | [2] > 100 µM | [3] > 100 µM | [4] > 100 µM | [5] > 100 µM | [6] 69 µM | [7] > 100 µM | [8] > 100 µM | [9] > 100 µM | [10] > 100 µM | [11] > 100 µM | [12] > 100 µM | [13] > 100 µM | [14] > 100 µM | [15] > 100 µM
